Results on 72 molecules are retold here after patent US9512125B2, “Substituted pyrazolo[3.4-D] pyrimidines as anti-inflammatory agents” (THE REGENTS OF THE UNIVERSITY OF CALIFORNIA, priority 2004, dated 2016).

In the first assay the test system is HUVEC with or without PBMC (3C, 4H, SAG and LPS systems). In words: BioMAP inflammation model systems (3C, 4H, SAG, LPS), cell-based ELISA profiling. Details: species or system human. To be noted: 4 systems (3C, 4H, SAG, LPS); concentration of 5 micromolar; 24 h stimulation.
For `Cc1ccc(C)c(Cc2nn(C(C)(C)C)c3ncnc(N)c23)c1` [Compound 1], the Activity result is “+”. Same read-out and setting: as for `CC(C)(C)n1nc(Cc2cccc(Br)c2)c2c(N)ncnc21` [Compound 2], the entry is “+”; as for `Cc1cc(C)cc(Cc2nn(C(C)(C)C)c3ncnc(N)c23)c1` [Compound 3], “+”.

As to `CC(C)(C)n1nc(Cc2ccc(Cl)c(Cl)c2)c2c(N)ncnc21` [Compound 4], the Activity result is reported as “+”. Same read-out and setting: then `Cc1ccc(Cc2nn(C(C)(C)C)c3ncnc(N)c23)cc1C` [Compound 5], with “+”. Consider `Cc1cccc(Cc2nn(C(C)(C)C)c3ncnc(N)c23)c1C` [Compound 6], for which the outcome was active. The same measure, in the same setting: then `CC(C)(C)c1ccc(-c2nn(C(C)(C)C)c3ncnc(N)c23)cc1` [Compound 14], with “+”; and `CC(C)(C)n1nc(-c2cccc([N+](=O)[O-])c2)c2c(N)ncnc21` [Compound 16], with “+”. On the same count and under the same terms, then `CC(C)(C)n1nc(-c2ccc([N+](=O)[O-])cc2)c2c(N)ncnc21` [Compound 18], with “+”. On the same count and under the same terms, as for `CC(C)(C)n1nc(-c2cccc(OCc3c(Cl)cccc3Cl)c2)c2c(N)ncnc21` [Compound 20], the entry is “+”. In the case of `CC(C)(C)n1nc(-c2cccc(OCc3ccccc3)c2)c2c(N)ncnc21` [Compound 21], the Activity entry is listed as “+”.

`CC(C)(C)n1nc(-c2cccc(Oc3ccccc3)c2)c2c(N)ncnc21` [Compound 22]: the outcome was active.

In the case of `CC(C)(C)n1nc(Cc2ccc(Cl)cc2)c2c(N)ncnc21` [Compound 23], the Activity entry was “+”. The same measure, in the same setting: then `CC(C)(C)n1nc(Cc2cccc(O)c2)c2c(N)ncnc21` [Compound 24], with “+”.

Take `CC(C)(C)n1nc(Cc2ccc(O)cc2)c2c(N)ncnc21` [Compound 25]: the Activity entry is reported as “+”. For the molecule `CC(C)(C)n1nc(Cc2ccccc2O)c2c(N)ncnc21` [Compound 26], the Activity result was “+”.

For the molecule `COc1ccc(Cc2nn(C(C)(C)C)c3ncnc(N)c23)cc1` [Compound 27], the Activity result was “+”. Consider `COc1ccccc1Cc1nn(C(C)(C)C)c2ncnc(N)c12` [Compound 28], for which the Activity result is recorded as “+”. Same read-out and setting: then `CC(C)(C)n1nc(CCc2ccccc2)c2c(N)ncnc21` [Compound 29], with “+”. As to `Cc1ccccc1Cc1nn(C(C)(C)C)c2ncnc(N)c12` [Compound 31], the result was active.

With `Cc1cccc(Cc2nn(C(C)(C)C)c3ncnc(N)c23)c1` [Compound 32], the Activity result is recorded as “+”.

Consider `Cc1ccc(Cc2nn(C(C)(C)C)c3ncnc(N)c23)cc1` [Compound 33], for which the Activity result is given as “+”. Same read-out and setting: then `CC(c1ccccc1)c1nn(C(C)(C)C)c2ncnc(N)c12` (centres unmarked) [Compound 34], with “+”. On the same count and under the same terms, then `CC(C)(C)n1nc(CC2CCCC2)c2c(N)ncnc21` [Compound 35], with “+”; and `CC(C)(C)n1nc(Cc2ccccc2)c2c(N)ncnc21` [Compound 36], with “active”; and `CC(C)(C)n1nc(-c2ccccc2Cl)c2c(N)ncnc21` [Compound 37], with “+”. The same measure, in the same setting: then `CC(C)(C)n1nc(C2CCCC2)c2c(N)ncnc21` [Compound 38], with “+”; and `Cc1cccc(-c2nn(C(C)(C)C)c3ncnc(N)c23)c1` [Compound 39], with “active”; and `CC(C)(C)n1nc(-c2ccccc2OCc2ccccc2)c2c(N)ncnc21` [Compound 40], with “+”. For the molecule `COC(=O)Cn1nc(Cc2cccc3ccccc23)c2c(N)ncnc21` [Compound 42], the Activity result was “+”.

Consider `CC(C)Cc1n[nH]c2ncnc(N)c12` [Compound 44], for which the Activity result is “+”. On the same count and under the same terms, as for `Nc1ncnc2[nH]nc(Cc3ccccc3)c12` [Compound 45], the entry is “+”; as for `Cc1n[nH]c2ncnc(N)c12` [Compound 46], “+”. As for `Nc1ncnc2[nH]nc(-c3ccc4ccccc4c3)c12` [Compound 47], the outcome was active. The same measure, in the same setting: as for `Nc1ncnc2c1c(-c1ccccc1)nn2-c1ccccc1` [Compound 49], the entry is “+”.

`CC(C)n1cc(-c2cccc(O)c2)c2c(N)ncnc21` [Compound 50]: the outcome was active. Still for that read-out and setting: then `COCCn1nc(-c2ccccc2)c2c(N)ncnc21` [Compound 51], with “+”; and `COCCn1nc(-c2cccc(O)c2)c2c(N)ncnc21` [Compound 52], with “active”. As to `CC(C)n1cc(-c2cccc(O)c2)c2c(NCc3ccccc3)ncnc21` [Compound 53], the result was active. The same measure, in the same setting: as for `CNc1ncnc2c1c(-c1cccc(O)c1)cn2C(C)C` [Compound 55], the entry is “+”; as for `CNc1ncnc2c1c(-c1cccc(N)c1)nn2C(C)C` [Compound 56], “+”. Still for that read-out and setting: as for `Clc1ncnc2c1c(-c1ccccc1)nn2Cc1ccccc1` [Compound 57], the entry is “+”; as for `Cn1nc(Cc2ccccc2Br)c2c(N)ncnc21` [Compound 58], “+”. With `CC(C)(C)n1nc(Cc2ccccc2Br)c2c(N)ncnc21` [Compound 59], the outcome was active.

As for `CC(C)(C)n1nc(Cc2c(Cl)cccc2Cl)c2c(N)ncnc21` [Compound 60], the result was active. Regarding `Cn1nc(Cc2ccccc2Cl)c2c(N)ncnc21` [Compound 61], the Activity entry was “+”.

For `CC(C)n1nc(Cc2ccccc2Cl)c2c(N)ncnc21` [Compound 62], the outcome was active.

In the case of `Nc1ncnc2c1c(Cc1ccccc1Cl)nn2C1CCCC1` [Compound 63], the result was active. The same measure, in the same setting: then `CC(C)(C)n1nc(Cc2ccccc2F)c2c(N)ncnc21` [Compound 64], with “active”. The same measure, in the same setting: then `CC(C)(C)n1nc(Cc2ccccc2C(F)(F)F)c2c(N)ncnc21` [Compound 65], with “active”.

Turning to `Cc1sccc1Cc1n[nH]c2ncnc(N)c12` [Compound 66], the result was active. The same measure, in the same setting: then `Cc1sccc1Cc1nn(C(C)(C)C)c2ncnc(N)c12` [Compound 67], with “active”. With `CC(C)(C)n1nc(Cc2ccc(Cl)cc2Cl)c2c(N)ncnc21` [Compound 68], the Activity entry is listed as “+”.

Turning to `CC(C)(C)n1nc(Cc2ccc(F)cc2Cl)c2c(N)ncnc21` [Compound 69], the Activity entry is listed as “+”. Regarding `CCOCCn1nc(Cc2ccccc2Cl)c2c(N)ncnc21` [Compound 70], the Activity entry is listed as “+”. Still for that read-out and setting: then `CC(C)(C)Cn1nc(Cc2ccccc2Cl)c2c(N)ncnc21` [Compound 72], with “active”.

For `COC(=O)CCCn1nc(Cc2ccccc2Cl)c2c(N)ncnc21` [Compound 73], the Activity result is recorded as “+”. On the same count and under the same terms, as for `Nc1ncnc2c1c(Cc1ccccc1Cl)nn2CCCCO` [Compound 74], the entry is “+”; as for `Nc1ncnc2c1c(Cc1ccccc1Cl)nn2C1CCC(O)CC1` (centres unmarked) [Compound 75], “+”; as for `CC(C)(C)n1nc(C2(c3ccccc3Cl)CC2)c2c(N)ncnc21` [Compound 77], “active”. Still for that read-out and setting: as for `CC(C)(C)n1nc(Cc2ccc(F)cc2F)c2c(N)ncnc21` [Compound 78], the entry is “active”; as for `CC(C)(C)n1nc(Cc2cc(F)ccc2F)c2c(N)ncnc21` [Compound 79], “active”; as for `CN(C)c1ncnc2c1c(Cc1ccccc1Cl)nn2C(C)(C)C` [Compound 80], “active”. On the same count and under the same terms, as for `CC(C)(C)n1nc(Cc2c(F)cccc2F)c2c(N)ncnc21` [Compound 81], the entry is “active”.

Consider `CC(C)(C)n1nc(Cc2cccc(F)c2F)c2c(N)ncnc21` [Compound 82], for which the outcome was active. As to `CCCn1nc(Cc2ccccc2Cl)c2c(N)ncnc21` [Compound 83], the result was active. On the same count and under the same terms, as for `CCCCCn1nc(Cc2ccccc2Cl)c2c(N)ncnc21` [Compound 84], the entry is “active”; as for `CCC(C)CCn1nc(Cc2ccccc2Cl)c2c(N)ncnc21` (centres unmarked) [Compound 85], “active”; as for `CC(C)(C)n1nc(-c2cc3ccccc3s2)c2c(N)ncnc21` [Compound 86], “active”. Same read-out and setting: then `CCCCCCn1nc(Cc2ccccc2Cl)c2c(N)ncnc21` [Compound 87], with “active”; and `CC(C)(C)n1nc(-c2ccc(-c3ccccc3)cc2)c2c(N)ncnc21` [Compound 88], with “active”; and `CCCCn1nc(Cc2ccccc2Cl)c2c(N)ncnc21` [Compound 89], with “active”.

The subject of the next assay is monocyte activation. In words: Monocyte activation inhibition in cell-based (BioMAP) assay. Details: species or system human. To be noted: weakly inhibit T cell activation, strongly inhibit monocyte activation, MCP-1 and IL-8 (at least 50%) in a cell-based assay. The protocol:
Human umbilical vein endothelial cells (HUVEC) were cultured as described in Kunkel et al., 2004, FASEB J 18:1279-1281. Peripheral blood mononuclear cells (PBMC) were prepared from buffy coats (Stanford Blood Bank, Stanford, Calif.) by centrifugation over Hisopaque-1077 (Sigma). Four assay systems, 3C, 4H, SAG, and LPS, were used. For the 3C system, HUVEC were cultured for 24 h in microtiter plates (Falcon; BD Biosciences), in the presence of cytokines IL-1β (1 ng/ml), TNF-α (5 ng/ml), and IFN-γ (20 ng/ml). For the 4H system, HUVEC were cultured in the presence of IL-4 (5 ng/ml) and histamine (10 μM). For the SAG system, HUVEC were cultured with PBMC (7.5×10^4) and SAG (20 ng/ml). For the LPS system, HUVEC were cultured with PBMC (7.5×10^4) and LPS (2 ng/ml). Compounds were added 1 h before stimulation and were present during the entire 24-h stimulation period. Cell-based enzyme-linked immunosorbent assay (ELISAs) were carried out as described. (See Kunkel et al., 2004, FASEB J 18:1279-1281.)
As for `Cc1ccccc1Cc1nn(C(C)(C)C)c2ncnc(N)c12` [Compound 31], the “monocyte activation inhibitor classification” value is listed as “monocyte activation inhibitor”.

For `CC(C)(C)n1nc(Cc2ccccc2)c2c(N)ncnc21` [Compound 36], the “monocyte activation inhibitor classification” value is listed as “monocyte activation inhibitor”. Same read-out and setting: as for `CC(C)(C)n1nc(Cc2ccccc2Br)c2c(N)ncnc21` [Compound 59], the entry is “monocyte activation inhibitor”; as for `CC(C)n1nc(Cc2ccccc2Cl)c2c(N)ncnc21` [Compound 62], “monocyte activation inhibitor”; as for `Nc1ncnc2c1c(Cc1ccccc1Cl)nn2C1CCCC1` [Compound 63], “monocyte activation inhibitor”. The same measure, in the same setting: then `CC(C)(C)n1nc(Cc2ccccc2F)c2c(N)ncnc21` [Compound 64], with “monocyte activation inhibitor”; and `CC(C)(C)n1nc(Cc2ccccc2C(F)(F)F)c2c(N)ncnc21` [Compound 65], with “monocyte activation inhibitor”; and `CC(C)(C)Cn1nc(Cc2ccccc2Cl)c2c(N)ncnc21` [Compound 72], with “monocyte activation inhibitor”.
